Measured values from patent US20070134793A1, “REDIFFERENTIATION MEDIUM FOR MAKING […] CHONDROCYTE TO BE […] INTO CHONDROCYTE” (priority 2004, published 2007).

System: dedifferentiated chondrocyte (P4, derived from human auricular cartilage)
Assay: Study of preferable amount of each component in the redifferentiation medium (type II collagen expression)
Type: cell-based
Settings: insulin 50, 5, 0.5 μg/mL compared; BMP-2 200 ng/mL, T3 10^-7 M

For insulin, the “content of insulin at which the expression amount of type II collagen was the largest” value was 5 µg/mL.
